Measurements reported in paper PMC7156458, “Synthetic biology based construction of biological activity-related library of fungal decalin-containing diterpenoid pyrones” (Nature Communications, 2020).

Target: Aβ42 (Homo sapiens, UniProt P05067)
Assay: Th-T (thioflavin-T) assay of Aβ42 aggregation
Type: biochemical
Settings: for Th-T assay plate reading, mean of three wells (Supplementary Fig. 47): source data, Ab alone and No Ab as controls
[1] = Aβ42 aggregation time course, reading M117
[2] = Aβ42 aggregation time course, reading M118
[3] = Aβ42 aggregation time course, reading M119
[4] = Aβ42 aggregation time course, reading M120
[5] = Aβ42 aggregation time course, reading M121
[6] = Aβ42 aggregation time course, reading M122
[7] = Aβ42 aggregation time course, reading M123
[8] = Aβ42 aggregation time course, reading M124
[9] = Aβ42 aggregation time course, reading M125
[10] = Aβ42 aggregation time course, reading M126
[11] = Aβ42 aggregation time course, reading M127
[12] = Aβ42 aggregation time course, reading M128
[13] = Aβ42 aggregation time course, reading M129
[14] = Aβ42 aggregation time course, reading M130
[15] = Aβ42 aggregation time course, reading M131
[16] = Aβ42 aggregation time course, reading M132
[17] = Aβ42 aggregation time course, reading M133
[18] = Aβ42 aggregation time course, reading M134
[19] = Aβ42 aggregation time course, reading M135
[20] = Aβ42 aggregation time course, reading M136
[21] = Supplementary Fig. 47, reading M137
[22] = Supplementary Fig. 47, reading M138
[23] = Supplementary Fig. 47, reading M139
[24] = Supplementary Fig. 47, reading M140
[25] = Supplementary Fig. 47, reading M141
[26] = Supplementary Fig. 47, reading M142
[27] = Supplementary Fig. 47, reading M143
[28] = Supplementary Fig. 47, reading M144
[29] = Supplementary Fig. 47, reading M145
[30] = reading M17, Supplementary Fig. 47 source data
[31] = time-course reading M97, Supplementary Fig. 47 source data
[32] = time-course reading M98, Supplementary Fig. 47 source data
[33] = time-course reading M99, Supplementary Fig. 47 source data
[34] = time-course reading M100, Supplementary Fig. 47 source data
[35] = time-course reading M101, Supplementary Fig. 47 source data
[36] = time-course reading M102, Supplementary Fig. 47 source data
[37] = time-course reading M103, Supplementary Fig. 47 source data
[38] = time-course reading M104, Supplementary Fig. 47 source data
[39] = time-course reading M105, Supplementary Fig. 47 source data
[40] = time-course reading M106, Supplementary Fig. 47 source data
[41] = time-course reading M107, Supplementary Fig. 47 source data
[42] = time-course reading M108, Supplementary Fig. 47 source data
[43] = time-course reading M109, Supplementary Fig. 47 source data
[44] = time-course reading M110, Supplementary Fig. 47 source data
[45] = time-course reading M111, Supplementary Fig. 47 source data
[46] = time-course reading M112, Supplementary Fig. 47 source data
[47] = time-course reading M113, Supplementary Fig. 47 source data
[48] = time-course reading M114, Supplementary Fig. 47 source data
[49] = time-course reading M115, Supplementary Fig. 47 source data
[50] = time-course reading M116, Supplementary Fig. 47 source data

Chain of Aβ42 (P05067 672-713): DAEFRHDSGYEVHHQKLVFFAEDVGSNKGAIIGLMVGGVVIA

C=C1CCC2C(C)(CCC=C(C)C)C(O)CCC2(C)C1Cc1c(OC)oc(C)c(C)c1=O (stereo not drawn) [Compound 11]
Th-T fluorescence, mean of three wells [1]: 3.419
Th-T fluorescence, mean of three wells [2]: 3.454
Th-T fluorescence, mean of three wells [3]: 3.399
Th-T fluorescence, mean of three wells [4]: 3.398
Th-T fluorescence, mean of three wells [5]: 3.42
Th-T fluorescence, mean of three wells [6]: 3.434
Th-T fluorescence, mean of three wells [7]: 3.405
Th-T fluorescence, mean of three wells [8]: 3.409
Th-T fluorescence, mean of three wells [9]: 3.379
Th-T fluorescence, mean of three wells [10]: 3.403
Th-T fluorescence, mean of three wells [11]: 3.386
Th-T fluorescence, mean of three wells [12]: 3.37
Th-T fluorescence, mean of three wells [13]: 3.334
Th-T fluorescence, mean of three wells [14]: 3.361
Th-T fluorescence, mean of three wells [15]: 3.331
Th-T fluorescence, mean of three wells [16]: 3.363
Th-T fluorescence, mean of three wells [17]: 3.349
Th-T fluorescence, mean of three wells [18]: 3.347
Th-T fluorescence, mean of three wells [19]: 3.342
Th-T fluorescence, mean of three wells [20]: 3.355
Th-T fluorescence, mean of three wells [21]: 3.327
Th-T fluorescence, mean of three wells [22]: 3.302
Th-T fluorescence, mean of three wells [23]: 3.301
Th-T fluorescence, mean of three wells [24]: 3.319
Th-T fluorescence, mean of three wells [25]: 3.315
Th-T fluorescence, mean of three wells [26]: 3.306
Th-T fluorescence, mean of three wells [27]: 3.276
Th-T fluorescence, mean of three wells [28]: 3.297
Th-T fluorescence, mean of three wells [29]: 3.29
Th-T assay plate reading, mean of three wells (Supplementary Fig. 47) (measurement M1): 0.2852
Th-T assay plate reading, mean of three wells (Supplementary Fig. 47) (measurement M2): 0.2849
Th-T assay plate reading, mean of three wells (Supplementary Fig. 47) (measurement M3): 0.2915
Th-T assay plate reading, mean of three wells (Supplementary Fig. 47) (measurement M4): 0.2733
Th-T assay plate reading, mean of three wells (Supplementary Fig. 47) (measurement M5): 0.2777
Th-T assay plate reading, mean of three wells (Supplementary Fig. 47) (measurement M6): 0.2762
Th-T assay plate reading, mean of three wells (Supplementary Fig. 47) (measurement M7): 0.318
Th-T assay plate reading, mean of three wells (Supplementary Fig. 47) (measurement M8): 0.3144
Th-T assay plate reading, mean of three wells (Supplementary Fig. 47) (measurement M9): 0.404
Th-T assay plate reading, mean of three wells (Supplementary Fig. 47) (measurement M10): 0.4577
Th-T assay plate reading, mean of three wells (Supplementary Fig. 47) (measurement M11): 0.5537
Th-T assay plate reading, mean of three wells (Supplementary Fig. 47) (measurement M12): 0.8108
Th-T assay plate reading, mean of three wells (Supplementary Fig. 47) (measurement M13): 1.388
Th-T assay plate reading, mean of three wells (Supplementary Fig. 47) (measurement M14): 1.929
Th-T assay plate reading, mean of three wells (Supplementary Fig. 47) (measurement M15): 2.27
Th-T assay plate reading, mean of three wells (Supplementary Fig. 47) (measurement M16): 2.506
Th-T fluorescence, mean of three wells [30]: 2.688
Th-T fluorescence, mean of three wells [31]: 3.56
Th-T fluorescence, mean of three wells [32]: 3.55
Th-T fluorescence, mean of three wells [33]: 3.504
Th-T fluorescence, mean of three wells [34]: 3.536
Th-T fluorescence, mean of three wells [35]: 3.529
Th-T fluorescence, mean of three wells [36]: 3.494
Th-T fluorescence, mean of three wells [37]: 3.477
Th-T fluorescence, mean of three wells [38]: 3.513
Th-T fluorescence, mean of three wells [39]: 3.503
Th-T fluorescence, mean of three wells [40]: 3.461
Th-T fluorescence, mean of three wells [41]: 3.469
Th-T fluorescence, mean of three wells [42]: 3.473
Th-T fluorescence, mean of three wells [43]: 3.5
Th-T fluorescence, mean of three wells [44]: 3.498
Th-T fluorescence, mean of three wells [45]: 3.4993
Th-T fluorescence, mean of three wells [46]: 3.484
Th-T fluorescence, mean of three wells [47]: 3.437
Th-T fluorescence, mean of three wells [48]: 3.447
Th-T fluorescence, mean of three wells [49]: 3.426
Th-T fluorescence, mean of three wells [50]: 3.43

C=C1CCC2C(C)(CCC=C(C)C)C(O)CCC2(C)C1Cc1c(O)c(C)c(C)oc1=O (stereo not drawn) [Compound 4]
Th-T fluorescence, mean of three wells [1]: 2.764
Th-T fluorescence, mean of three wells [2]: 2.782
Th-T fluorescence, mean of three wells [3]: 2.76
Th-T fluorescence, mean of three wells [4]: 2.773
Th-T fluorescence, mean of three wells [5]: 2.751
Th-T fluorescence, mean of three wells [6]: 2.756
Th-T fluorescence, mean of three wells [7]: 2.7381
Th-T fluorescence, mean of three wells [8]: 2.734
Th-T fluorescence, mean of three wells [9]: 2.771
Th-T fluorescence, mean of three wells [10]: 2.764
Th-T fluorescence, mean of three wells [11]: 2.744
Th-T fluorescence, mean of three wells [12]: 2.737
Th-T fluorescence, mean of three wells [13]: 2.759
Th-T fluorescence, mean of three wells [14]: 2.729
Th-T fluorescence, mean of three wells [15]: 2.75
Th-T fluorescence, mean of three wells [16]: 2.778
Th-T fluorescence, mean of three wells [17]: 2.76
Th-T fluorescence, mean of three wells [18]: 2.744
Th-T fluorescence, mean of three wells [19]: 2.723
Th-T fluorescence, mean of three wells [20]: 2.752
Th-T fluorescence, mean of three wells [21]: 2.732
Th-T fluorescence, mean of three wells [22]: 2.752
Th-T fluorescence, mean of three wells [23]: 2.7362
Th-T fluorescence, mean of three wells [24]: 2.723
Th-T fluorescence, mean of three wells [25]: 2.765
Th-T fluorescence, mean of three wells [26]: 2.731
Th-T fluorescence, mean of three wells [27]: 2.798
Th-T fluorescence, mean of three wells [28]: 2.748
Th-T fluorescence, mean of three wells [29]: 2.777
Th-T assay plate reading, mean of three wells (Supplementary Fig. 47) (measurement M1): 0.3186
Th-T assay plate reading, mean of three wells (Supplementary Fig. 47) (measurement M2): 0.3159
Th-T assay plate reading, mean of three wells (Supplementary Fig. 47) (measurement M3): 0.3554
Th-T assay plate reading, mean of three wells (Supplementary Fig. 47) (measurement M4): 0.4086
Th-T assay plate reading, mean of three wells (Supplementary Fig. 47) (measurement M5): 0.4658
Th-T assay plate reading, mean of three wells (Supplementary Fig. 47) (measurement M6): 0.5438
Th-T assay plate reading, mean of three wells (Supplementary Fig. 47) (measurement M7): 0.6121
Th-T assay plate reading, mean of three wells (Supplementary Fig. 47) (measurement M8): 0.6677
Th-T assay plate reading, mean of three wells (Supplementary Fig. 47) (measurement M9): 0.6972
Th-T assay plate reading, mean of three wells (Supplementary Fig. 47) (measurement M10): 0.7395
Th-T assay plate reading, mean of three wells (Supplementary Fig. 47) (measurement M11): 0.7934
Th-T assay plate reading, mean of three wells (Supplementary Fig. 47) (measurement M12): 0.8591
Th-T assay plate reading, mean of three wells (Supplementary Fig. 47) (measurement M13): 0.9703
Th-T assay plate reading, mean of three wells (Supplementary Fig. 47) (measurement M14): 1.131
Th-T assay plate reading, mean of three wells (Supplementary Fig. 47) (measurement M15): 1.366
Th-T assay plate reading, mean of three wells (Supplementary Fig. 47) (measurement M16): 1.644
Th-T fluorescence, mean of three wells [30]: 1.91
Th-T fluorescence, mean of three wells [31]: 2.7952
Th-T fluorescence, mean of three wells [32]: 2.787
Th-T fluorescence, mean of three wells [33]: 2.818
Th-T fluorescence, mean of three wells [34]: 2.783
Th-T fluorescence, mean of three wells [35]: 2.764
Th-T fluorescence, mean of three wells [36]: 2.765
Th-T fluorescence, mean of three wells [37]: 2.763
Th-T fluorescence, mean of three wells [38]: 2.782
Th-T fluorescence, mean of three wells [39]: 2.776
Th-T fluorescence, mean of three wells [40]: 2.782
Th-T fluorescence, mean of three wells [41]: 2.786
Th-T fluorescence, mean of three wells [42]: 2.803
Th-T fluorescence, mean of three wells [43]: 2.779
Th-T fluorescence, mean of three wells [44]: 2.789
Th-T fluorescence, mean of three wells [45]: 2.786
Th-T fluorescence, mean of three wells [46]: 2.79
Th-T fluorescence, mean of three wells [47]: 2.795
Th-T fluorescence, mean of three wells [48]: 2.781
Th-T fluorescence, mean of three wells [49]: 2.739
Th-T fluorescence, mean of three wells [50]: 2.771
